{
  "source": "patent EP0733369A1",
  "about": "“Protease inhibitors, a DNA construct for the expression of a protease and a process for measuring proteases and/or protease inhibitors” (Stichting REGA V.Z.W., priority 1995, dated 1996)",
  "key": {"[1]": {"target": "T1, gelatinase B from neutrophils (Homo sapiens, UniProt P14780)", "T1 sequence (P14780 94-707)": "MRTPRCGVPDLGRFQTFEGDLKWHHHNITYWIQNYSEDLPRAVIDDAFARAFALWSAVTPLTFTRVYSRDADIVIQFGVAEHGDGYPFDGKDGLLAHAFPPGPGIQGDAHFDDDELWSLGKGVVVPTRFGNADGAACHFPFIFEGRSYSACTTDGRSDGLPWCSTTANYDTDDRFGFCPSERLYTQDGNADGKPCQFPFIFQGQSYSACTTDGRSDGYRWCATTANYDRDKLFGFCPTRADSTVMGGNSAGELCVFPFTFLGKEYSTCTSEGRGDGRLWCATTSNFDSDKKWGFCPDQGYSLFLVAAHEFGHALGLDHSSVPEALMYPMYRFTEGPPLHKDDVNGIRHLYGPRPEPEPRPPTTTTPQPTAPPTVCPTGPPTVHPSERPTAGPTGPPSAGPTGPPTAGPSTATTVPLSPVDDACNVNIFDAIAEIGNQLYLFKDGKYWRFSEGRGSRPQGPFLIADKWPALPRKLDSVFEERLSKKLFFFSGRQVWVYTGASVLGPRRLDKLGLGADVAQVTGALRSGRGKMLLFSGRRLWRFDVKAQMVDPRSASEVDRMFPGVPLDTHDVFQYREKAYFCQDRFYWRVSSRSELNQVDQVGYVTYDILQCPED", "experiment": "zymography inhibition assay, inhibitor in developing buffer", "type": "biochemical", "set-up": "The 92 kDa neutrophil gelatinase is indicated with an arrowhead; endogenous in cells; host or cells: human neutrophils; purified from conditioned medium on gelatin-Sepharose", "settings": "qualitative statements", "quoted_text": "Quantitative zymography was performed as described (7,8). Briefly, 40 µl of loading buffer was added to 40 µl of each sample and applied on 7.5% polyacrylamide gels which had been co-polymerised with 0.1% (w/v) gelatin. Stacking gels contained 5% polyacrylamide. The gels were run at 4°C for 16h at 90V. The gels were then incubated in washing buffer (50 mM Tris-HCl pH 7.5, 10mM CaCl2, O.O2% (W/V) NaN3, 2.5% (v/v) Triton X-100) at room temperature, 2x20 min to remove sodium dodecyl sulfate and overnight in developing buffer (50 mM Tris-HCl pH 7.5, 10mM CaCl2, O.O2% (w/v) NaN3, 1% (v/v) Triton X-100) at 37°C. The gels were then stained in Coomassie brilliant blue R-250 and destained in methanol/acetic acid. The sites of gelatinase activity appeared as unstained bands on a blue background and were quantified by computerised image analysis through scanning densitometry with a PDI scanner (Pharmacia, Belgium) and the PDI software package. For inhibition experiments, the inhibitors were dissolved in the developing buffer at the appropriate concentration. […] The enzyme activity was developed by staining of the substrate with Coomassie blue and quantification of the substrate digestion by scanning densitometry. […] The enzyme activity was developed by staining of the substrate with Coomassie blue and quantification of the substrate digestion by scanning densitometry. […]"}, "Gelatinase A": {"target": "T2, Gelatinase A (Homo sapiens, UniProt P08253)", "T2 construct": "from tissue; host or cells: cerebrospinal fluid of patients with multiple sclerosis or optic neuritis", "T2 sequence (P08253 110-660)": "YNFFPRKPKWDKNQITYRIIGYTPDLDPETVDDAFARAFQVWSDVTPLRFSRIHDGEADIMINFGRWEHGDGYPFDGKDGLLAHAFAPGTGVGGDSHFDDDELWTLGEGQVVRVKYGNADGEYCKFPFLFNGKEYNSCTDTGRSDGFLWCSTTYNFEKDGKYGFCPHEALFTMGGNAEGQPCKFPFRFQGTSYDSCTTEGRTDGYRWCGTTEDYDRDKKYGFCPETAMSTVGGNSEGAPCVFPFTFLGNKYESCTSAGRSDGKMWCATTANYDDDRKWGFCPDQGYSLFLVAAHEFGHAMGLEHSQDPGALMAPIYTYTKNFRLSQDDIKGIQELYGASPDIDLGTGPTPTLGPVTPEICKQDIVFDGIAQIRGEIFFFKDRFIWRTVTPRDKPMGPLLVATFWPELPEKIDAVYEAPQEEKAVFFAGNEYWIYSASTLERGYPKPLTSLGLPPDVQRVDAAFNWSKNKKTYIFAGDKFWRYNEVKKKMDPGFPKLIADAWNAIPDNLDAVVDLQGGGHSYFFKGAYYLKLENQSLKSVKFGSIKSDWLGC", "experiment": "zymography of cerebrospinal fluid of MS / optic neuritis patients with inhibitor", "type": "biochemical", "settings": "CSF of MS patients, increasing concentrations", "description": "(§1) Quantitative zymography was performed as described (7,8). Briefly, 40 µl of loading buffer was added to 40 µl of each sample and applied on 7.5% polyacrylamide gels which had been co-polymerised with 0.1% (w/v) gelatin. Stacking gels contained 5% polyacrylamide. The gels were run at 4°C for 16h at 90V. The gels were then incubated in washing buffer (50 mM Tris-HCl pH 7.5, 10mM CaCl2, O.O2% (W/V) NaN3, 2.5% (v/v) Triton X-100) at room temperature, 2x20 min to remove sodium dodecyl sulfate and overnight in developing buffer (50 mM Tris-HCl pH 7.5, 10mM CaCl2, O.O2% (w/v) NaN3, 1% (v/v) Triton X-100) at 37°C. […] The sites of gelatinase activity appeared as unstained bands on a blue background and were quantified by computerised image analysis through scanning densitometry with a PDI scanner (Pharmacia, Belgium) and the PDI software package. […]\n(§2) Similar results were obtained when pure preparations of gelatinase B were tested or when gelatinase B was measured in the presence of D-penicillamine in body fluids or cell supernatants.\n(§3) Figure 13. […] Gelatinase A (---) and B(_) activities in the CSF were measured by zymography in the absence or the presence of increasing concentrations of D-penicillamine. The scanning indices for each patient are calculated at the residual activity in the presence of inhibitor versus the activity without inhibitor. […]"}, "Gelatinase B [2]": {"target": "T3, Gelatinase B (Homo sapiens, UniProt P14780)", "experiment": "ID50 on homogeneous enzyme", "type": "biochemical"}, "Gelatinase B [3]": {"target": "T3, Gelatinase B", "experiment": "zymography of cerebrospinal fluid of MS / optic neuritis patients with inhibitor", "type": "biochemical", "set-up": "from tissue; host or cells: cerebrospinal fluid of patients with multiple sclerosis or optic neuritis", "settings": "CSF of MS patients, increasing concentrations", "description": "as §1, §2, §3"}, "t-PA": {"target": "t-PA (Homo sapiens, UniProt P00750)", "sequence (P00750 36-562, species assumed)": "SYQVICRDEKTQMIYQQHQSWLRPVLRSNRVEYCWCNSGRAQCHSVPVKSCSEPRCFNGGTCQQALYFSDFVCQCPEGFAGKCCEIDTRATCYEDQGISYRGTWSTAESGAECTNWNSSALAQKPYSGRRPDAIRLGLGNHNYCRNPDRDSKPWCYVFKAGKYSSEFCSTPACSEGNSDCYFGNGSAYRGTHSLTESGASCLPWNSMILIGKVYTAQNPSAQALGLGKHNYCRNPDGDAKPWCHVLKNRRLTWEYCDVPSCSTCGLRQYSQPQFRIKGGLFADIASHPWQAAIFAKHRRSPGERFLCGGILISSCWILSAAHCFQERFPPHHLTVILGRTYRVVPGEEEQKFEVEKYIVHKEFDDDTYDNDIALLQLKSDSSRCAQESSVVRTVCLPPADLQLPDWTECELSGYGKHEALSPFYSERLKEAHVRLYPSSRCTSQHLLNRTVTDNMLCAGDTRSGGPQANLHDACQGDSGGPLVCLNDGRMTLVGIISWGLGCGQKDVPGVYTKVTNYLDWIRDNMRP", "experiment": "ID50 on homogeneous enzyme", "type": "biochemical"}, "[4]": {"tested_on": "hyperacute experimental allergic encephalomyelitis (EAE)", "experiment": "acute (hyperacute) EAE in SJL mice", "settings": "intraperitoneal, equivalent of 27 to 375 µg per mouse daily", "quoted_text": "In both hind paws 50µl of this emulsion was injected on day 0. On day 0 and 2, 50µl B.pertussis (200x10^9 bacteria/ml) were injected intraveneously. […] The control group received injections with 0.9% NaCl, used as excipiens. The animals were daily monitored and the disease and mortality were scored.)."}, "[5]": {"tested_on": "human monocytic cell line THP-1", "experiment": "gelatinase B protein (zymography) and mRNA (northern blot) production in THP-1 cultures", "type": "cell-based", "settings": "THP-1, LPS 1µg/ml, RA 100nM or untreated; D-penicillamine 50 µg/ml; 16 h", "description": "Figure 14. […] Cultures of the human monocytic cell line THP-1 were stimulated with lipopolysaccharide (LPS, 1µg/ml), retinoic acid (RA, 100nM) or left untreated (CO) in the presence or absence of D-penicillamine (DPEN, 50 µg/ml). After 16 h total RNA was extracted and gelatinase B mRNA was measured by northern blot analysis with a human probe (41) (a). Gelatinase B protein in the cell culture fluids was assayed by zymographic analysis on gelatin substrate gels (b)."}, "[6]": {"target": "T1, gelatinase B from neutrophils", "experiment": "gelatinase (inhibitor) microtiter plate assay with biotinylated gelatin", "type": "biochemical", "set-up": "endogenous in cells; host or cells: human neutrophils stimulated with lipopolysaccharide; conditioned medium", "settings": "for gelatinase B inhibitory activity in the plate assay (in words): qualitative statements", "description": "The measurement of gelatinase activity was based on the detection of non-degraded biotinylated gelatin with a streptavidin-peroxidase conjugate. This test is based on the biotin-avidin method described by Sorbi et al. (25) but modified to a one plate assay (schematically represented in Fig. 1.). Gelatin (1mg/ml) was dissolved in 0.1 M sodium bicarbonate pH 8.3 by heating to 40°C. Biotin-N-hydroxysuccinimide ester was dissolved in dimethylsulfoxide (Me2SO) and was added to the gelatin in a 15-fold molar excess. The mixture was allowed to react overnight at 4°C and the biotinylated gelatin was then dialyzed against phosphate buffered saline (PBS). Neutrophil granulocyte (Neu) medium was collected from human neutrophils after stimulation with lipopolysaccharide (1µg/ml) overnight at 37°C in Minimal Essential Medium. Cells were removed by 10 min centrifugation at 1000 g. Purified gelatinase was obtained by one-step affinity chromatography of neutrophil medium on a gelatin-sepharose column as described (8).\nModified flat bottom 96-well ELISA plates were coated overnight with 0.5 µg/ml avidin in distilled water. The plates were then blocked with 0.3% bovine serum albumin (BSA, Sigma) in PBS for 1 hour at 37°C. Biotinylated gelatin was diluted to 50 µg/ml and 100µl was added to the avidin-coated wells. After incubation for one hour at 20°C, the plate was rinsed with PBS. Medium containing the secreted gelatinases from human neutrophils (dilution range 1/3-1/3^11) and the inhibitors were diluted in incubation buffer (50 mM Tris-HCl pH 7.5, 10 mM CaCl2, 0.02% (W/V) NaN3, 1% (V/V) Triton X-100) and 100 µl of each were mixed. 190 µl of the mixture was added to the gelatin-coated plates and allowed to digest the gelatin overnight at 37°C. The plates were then washed with PBS and each well was incubated with 100 µl peroxidase-conjugated-streptavidin at a 1:2000 dilution for 1 hour at 37°C. After rinsing the plate, the ABTS substrate was added (0.5 mg/ml solution containing 0.1 M citric acid, 0.2 M Na2HPO4, pH 4.3, 0.07 µl/ml 30% H2O2) and the optical density was read at 405 nm after 10 min. incubation at room temperature. Additional information on published test systems used here for comparison.\nGelatin is biotinylated and bound to avidin-coated microtiter plates. By addition of gelatinases the number of free biotin groups decreases and proportionally less streptavidin-peroxidase is bound to the residual substrate. Bound streptavidin-peroxidase activity is measured spectrophotometrically by reaction of peroxide with ABTS. Inhibition of gelatinase is obtained by the addition of inhibitor to a known amount of gelatinase prior to application to the plates. The peroxidase activity increases proportionally with the inhibitory activity.\nPlates were first coated with 10µg/ml avidin and 50µg/ml biotinylated gelatin (theoretically saturating the avidin binding sites). As the sensitivity of the assay is dependent on the detection of the minimal amount of degraded biotinylated gelatin, we investigated wether decreasing the amount of biotin-gelatin (50 µg/ml-23 ng/ml) bound to the avidin-coated (10µg/ml) plate increased the sensitivity of the assay. […] Thus it was verified whether a decrease in the avidin coating could make the assay more sensitive (Fig. 2). […] In all further examples plates were coated with 0.5 µg/ml avidin and 50 µg/ml gelatin-biotin.\nThe titration curves of gelatinase inhibition were always related to a blanc curve and this for enzyme concentrations within the slope of the curve (vertical dotted lines Fig. 3). The decrease in enzyme activity to which the inhibitor-incubated sample corresponded was defined as the inhibition factor (IF)."}, "u-PA": {"target": "u-PA (Homo sapiens, UniProt P00749)", "experiment": "ID50 on homogeneous enzyme", "type": "biochemical"}, "chronic relapsing EAE": {"tested_on": "chronic relapsing EAE", "experiment": "chronic relapsing EAE in Biozzi AB/H mice", "type": "in vivo", "settings": "750 µg three times weekly from day 22 onwards"}},
  "note": "Entries after “also recorded” stand apart in the source; their conditions may differ. Where a name gives a salt, the structure may show the parent alone.",
  "data": [
    {"smiles": "CC(C)(S)[C@@H](N)C(=O)O", "note": "[D-penicillamine]", "values": [
      {"measurement": "inhibition of gelatinase B on zymography (in words)", "setting": "[1]", "value": "inhibitor of gelatinase B"},
      {"measurement": "inhibition of Gelatinase A in cerebrospinal fluid (in words)", "setting": "Gelatinase A", "value": "inhibited in a dose-dependent way"},
      {"measurement": "IC50", "setting": "Gelatinase B [2]", "value": 20.1, "unit": "µM"},
      {"measurement": "inhibition of Gelatinase B in cerebrospinal fluid (in words)", "setting": "Gelatinase B [3]", "value": "inhibited in a dose-dependent way"},
      {"measurement": "IC50", "setting": "t-PA", "value": 121, "unit": "µM"},
      {"measurement": "development of disease symptoms in acute EAE", "setting": "[4]", "value": "complete blockage; also recorded: inhibits in a dose-dependent way the development of disease symptoms"},
      {"measurement": "spontaneous and induced levels of gelatinase B mRNA", "setting": "[5]", "value": "remained constant"},
      {"measurement": "spontaneous and induced levels of gelatinase B protein", "setting": "[5]", "value": "remained constant"},
      {"measurement": "gelatinase B inhibitory activity in the plate assay (in words)", "setting": "[6]", "value": "inhibitor of gelatinase B"},
      {"measurement": "IC50", "setting": "u-PA", "value": 93.8, "unit": "µM"},
      {"measurement": "disease recurrencies in chronic relapsing EAE", "setting": "chronic relapsing EAE", "value": "abrogated the exacerbations; also recorded: abrogated the disease recurrencies"}
    ]},
    {"smiles": "CN(C)c1ccc(O)c2c1C[C@H]1C[C@H]3[C@H](N(C)C)C(O)=C(C(N)=O)C(=O)[C@@]3(O)C(O)=C1C2=O", "note": "[minocycline HCl]", "values": [
      {"measurement": "inhibition of gelatinase B on zymography (in words)", "setting": "[1]", "value": "inhibits gelatinase B in a dose-dependent way"},
      {"measurement": "gelatinase B inhibitory activity in the plate assay (in words)", "setting": "[6]; listed as minocyclin, HCl", "value": "active as an inhibitor"},
      {"measurement": "gelatinase B inhibitory activity in the plate assay (in words)", "setting": "[6]; listed as minocycline, HCl", "value": "confirmed in the plate assay; also recorded: active"},
      {"measurement": "Inhibition factor (IF)", "setting": "[6]; tetracycline concentration 1.67 mg/ml", "value": 3},
      {"measurement": "Inhibition factor (IF)", "setting": "[6]; tetracycline concentration 3.33 mg/ml", "value": 8}
    ]}
  ]
}
